Reference: PMC1764434 (PLoS Clinical Trials, 2007)
Where “and” joins values, the source holds several entries; their conditions need not be identical. Identical values can stand only once. Entries after “also recorded” stand apart in the source; their conditions may differ. Like-named read-outs stand apart in the source and are kept apart here. Each block holds one molecule with its values, some of them ahead of it.

How the values were obtained:
[1] = Blood pharmacokinetics after oral dosing (fluorescence HPLC, noncompartmental WinNonlin model); assay type: in vivo, human; details: for detection of di-dealkylated metabolite in the blood: after oral AQ-13 or CQ; for metabolite/parent ratio in blood at the Cmax of the parent drug: 600 mg dose, AQ-72/AQ-13 (mean) or MDCQ/CQ; for time to appearance of metabolite in the blood: after oral 600 or 700 mg AQ-13 or 600 mg CQ; for AUC / MRT / half-life / Cmax / Vd/F / Tmax: human
Experimental: Study drugs were administered in the GCRC on an empty stomach between 8 and 9 AM the morning after admission (after fasting for ≥ 10 h).

[2] = Urinary excretion and renal clearance (24-hour urine collections, days 1-3); details: for second (di-dealkylated) metabolite/parent ratio in urine: AQ-73/AQ-13 and BDCQ/CQ; for detection of di-dealkylated metabolite in urine: urine collections days 1-3 after dosing; for mono-dealkylated metabolite/parent ratio in urine: AQ-72/AQ-13 and MDCQ/CQ
[3] = test system: healthy volunteers; assay: Clinical adverse events (weekly diaries, blinded relatedness assessment), Phase I RCT; assay type: in vivo, human
Experimental: Adverse events (AEs) were recorded in weekly diaries provided to each volunteer. The relatedness of these AEs to the study drugs was assessed by two physicians (FM, CH) based on temporal association and biological plausibility using five categories: definitely not, unlikely, possibly, probably, and definitely related. The AEs reported in this manuscript include all AEs assessed as possibly, probably, or definitely related.
Quantitative data are presented as the mean ± standard deviation or as median and range, as appropriate. […] Due to a lack of normality, the nonparametric Mann-Whitney U test was used to compare independent samples; the Wilcoxon or Friedman test (whichever was appropriate) was used to compare repeated measures of the QTc interval. All statistical tests were two-sided with an α (significance level) of 0.05. Analyses were performed using the SPSS 11.0 statistical software (SPSS, Chicago, Illinois, United States). All analyses were based on allocation by intent-to-treat.

[4] = test system: QT interval; assay: Effects on the QT interval (ECG and Holter recordings, Bazett correction); details: for QTc interval, Baseline: before dosing
Experimental: The effects of the study drugs on the QT interval were assessed by comparing QT intervals before dosing with QT intervals 4 h after dosing, and at the 2 wk follow-up. […] QT intervals were measured manually and electronically (Rozinn Electronics, Glendale, New York, United States). […] Correction of the QT interval for heart rate (i.e., QTc) was performed using Bazett's formula [27].

[5] = test system: healthy volunteers; assay: Post-dose clinical and laboratory follow-up (hematology, chemistry, organ toxicity); assay type: in vivo, human
[6] = test system: CQ-resistant P. falciparum; details: cited from earlier work
[7] = whole blood, po, 600 mg, after 600 mg oral dose of parent drug (CQ or AQ-13), whole blood, median (range), read-out: AUCτ of metabolite
[8] = whole blood, after 600 mg oral dose of parent drug, median (range), read-out: MRT of metabolite (converted)
[9] = whole blood, after 600 mg oral dose of parent drug, median (range), read-out: t1/2 of metabolite (converted)
[10] = whole blood, after 600 mg oral dose of parent drug, median, read-out: Cmax of metabolite
[11] = 1,500 mg CQ (n = 15) / 1,750 mg AQ-13 (n = 14)
[12] = 100, 300 mg doses, n = 16 per drug
[13] = 600/700 mg, AQ-13 n = 25, CQ n = 24
[14] = all doses combined, 63 volunteers per drug
[15] = 1,750 mg AQ-13, 1,500 mg CQ, mean ± SD
[16] = 600/700 mg AQ-13, 600 mg CQ, mean ± SD
[17] = days 1-3, 1,750 mg AQ-13 / 1,500 mg CQ

Structure (SMILES): CCNCCCC(C)Nc1ccnc2cc(Cl)ccc12 (stereo not drawn) [MDCQ, mono-desethylchloroquine]
time after dosing at which metabolite/parent ratio reached 1.0 ([1]; 600 mg CQ, MDCQ/CQ ratio): 2–3 wk
metabolite/parent ratio in blood at the Cmax of the parent drug [1]: 0.26
time to appearance of metabolite in the blood [1]: ≤ 1 h
AUC ([1]; whole blood, oral, 1500 mg, after 1,500 mg CQ over 3 d, median (range), read-out: AUCτ of metabolite): 330 µM·h
MRT ([1]; whole blood, oral, 1500 mg, after 1,500 mg CQ over 3 d, median (range), read-out: MRT of metabolite (converted)): 29 days
half-life ([1]; whole blood, oral, 1500 mg, after 1,500 mg CQ over 3 d, median (range), read-out: t1/2 of metabolite (converted)): 21.8 days
AUC [1, 7]: 205 µM·h
MRT [1, 8]: 44.8 days
half-life [1, 9]: 31.2 days
Cmax [1, 10]: 540 nM
mono-dealkylated metabolite/parent ratio in urine ([2]; days 1-3): 22.7%

Structure (SMILES): CC(CCCN)Nc1ccnc2cc(Cl)ccc12 (stereo not drawn) [BDCQ]
detection of di-dealkylated metabolite in the blood [1]: not detected in the blood
second (di-dealkylated) metabolite/parent ratio in urine ([2]; days 1-3): 2.6%
detection of di-dealkylated metabolite in urine [2]: identified in urine collections

Structure (SMILES): CCN(CC)CCCC(C)Nc1ccnc2cc(Cl)ccc12 (stereo not drawn) [CQ, chloroquine]
blood level one hour after dosing as % of Cmax ([1]; 600 mg oral dose): 72%
Cl/F ([1]; 1,500 mg oral over 3 d, median (range)): 9.5 L/h
median oral clearance (range of medians across dose levels) ([1]; 600 and 1,500/1,750 mg doses): 9.5 to 11.3 L/h
Cmax ([1]; in vivo, 1500 mg, 1,500 mg oral over 3 d (600+600+300 mg), whole blood, median (range), read-out: Cmax): 3400 nM
Vd/F ([1]; in vivo, 1500 mg, 1,500 mg oral over 3 d, median (range)): 3720 L
MRT ([1]; in vivo, 1500 mg, 1,500 mg oral over 3 d, median (range), read-out: MRT (converted)): 16 days
Tmax ([1]; in vivo, 1500 mg, 1,500 mg oral over 3 d, median (range), read-out: Tmax): 1.1 days
half-life ([1]; in vivo, 1500 mg, 1,500 mg oral over 3 d, median (range), read-out: t½ (converted)): 13.2 days
AUC ([1]; in vivo, po, 600 mg, single oral 600 mg dose, whole blood, median (range), read-out: AUCw1 (partial AUC for week 1)): 90 µM·h
AUC ([1]; in vivo, po, 600 mg, single oral 600 mg dose, whole blood, median (range), read-out: AUCτ (total area under the curve)): 241 µM·h
AUC ([1]; in vivo, po, 1500 mg, 1,500 mg oral over 3 d, median (range), read-out: AUCw1): 312 µM·h
AUC ([1]; in vivo, po, 1500 mg, 1,500 mg oral over 3 d, median (range), read-out: AUCτ): 636 µM·h
Tmax ([1]; in vivo, 1,750 mg AQ-13 / 1,500 mg CQ, 27–28 h after the first dose, read-out: time of peak blood concentration after the second dose): 0.125 to 0.167 days
half-life ([1]; in vivo, 600 and 1,500 mg oral doses, read-out: estimate of the terminal elimination t1/2 (across doses)): 14 to 24 days
Cmax ([1]; in vivo, single oral 600 mg dose (CQ base equivalent), whole blood, median (range), read-out: Cmax): 1800 nM
Vd/F ([1]; in vivo, single oral 600 mg dose, median (range)): 8670 L
MRT ([1]; in vivo, single oral 600 mg dose, whole blood, median (range), read-out: MRT (converted)): 24.7 days
Tmax ([1]; in vivo, single oral 600 mg dose, whole blood, median (range), read-out: Tmax): 0.125 days
half-life ([1]; in vivo, single oral 600 mg dose, whole blood, median (range), read-out: t½ (terminal elimination half-life) (converted)): 23.3 days
linearity of pharmacokinetics ([1]; oral doses in healthy volunteers): linear pharmacokinetics
Cl/F (apparent oral clearance) ([1]; single oral 600 mg dose, median (range)): 11.3 (5.7–20.3) l/h
related adverse events: None ([3]; 10 mg dose, n = 8 per drug): 0
Abdominal pain, number (%) [3, 11]: 0
Blurred vision, number (%) [3, 11]: 2 (13%)
Diarrhea, number (%) [3, 11]: 4 (27%)
Difficulty focusing/visual floating objects, number (%) [3, 11]: 3 (20%)
Lightheadedness/Dizziness, number (%) [3, 11]: 4 (27%)
Loss of appetite, number (%) [3, 11]: 2 (13%)
Nausea, number (%) [3, 11]: 5 (33%)
Vomiting, number (%) [3, 11]: 2 (13%)
Weakness/fatigue, number (%) [3, 11]: 0
Headache, number (%) ([3]; 1,500 mg CQ (n = 15) / 1,750 mg AQ-13 (n = 14) over 3 d): 4 (27%)
Headache, volunteers with related AE, number (%) [3, 12]: 1 (6%)
Lightheadedness/Dizziness, number (%) [3, 12]: 1 (6%)
Nausea, number (%) [3, 12]: 0
Abdominal pain, number (%) [3, 13]: 0
Diarrhea, number (%) [3, 13]: 2 (8%)
Ear symptoms, number (%) [3, 13]: 2 (8%)
Headache, number (%) [3, 13]: 5 (21%)
Lightheadedness/Dizziness, number (%) [3, 13]: 3 (13%)
Loss of appetite, number (%) [3, 13]: 3 (13%)
Nausea, number (%) [3, 13]: 1 (4%)
Vomiting, number (%) [3, 13]: 0
drug-related GI symptoms, number of reports ([3]; all doses combined): 20 reports
drug-related lightheadedness/dizziness, volunteers/total [3, 14]: 8/63
volunteers reporting one or more GI symptoms/total [3, 14]: 13/63
QTc interval of individual volunteers who developed QTc greater than 450 ms ([4]; 600 mg CQ, two females): 467 ms and 457 ms
mean QTc prolongation after the first dose (day 1) ([4]; 1,500 mg CQ (first 600 mg dose) / 1,750 mg AQ-13 (first 700 mg dose)): 16 ms
additional QTc increase after the second dose (day 2) ([4]; 1,500 mg CQ / 1,750 mg AQ-13): 12 ms
QTc interval of individual volunteers who developed QTc > 450 ms ([4]; 1,500 mg CQ, 4 h after dosing on day 2, two females): 453 ms
QTc interval, Baseline ([4]; 1,750 mg AQ-13 (n = 13), 1,500 mg CQ (n = 14), mean ± SD): 396 ± 21 ms
QTc interval, 2 wk follow-up [4, 15]: 412 ± 13 ms
QTc interval, 4–5 h post-dose (day 1) [4, 15]: 412 ± 22 ms
QTc interval, 4–5 h post-dose (day 2) [4, 15]: 424 ± 19 ms and 424 ± 18 ms
QTc interval, 4–5 h post-dose (day 3) [4, 15]: 417 ± 21 ms
mean QTc prolongation, females ([4]; 1,750 mg AQ-13 / 1,500 mg CQ): 28 ms
mean QTc prolongation, males ([4]; 1,750 mg AQ-13 / 1,500 mg CQ): 31 ms
mean increase in the QTc interval from baseline ([4]; 1,750 mg AQ-13 / 1,500 mg CQ, 4 h after the second dose on day 2): 28 ms
QTc interval, Baseline ([4]; 600/700 mg AQ-13 (n = 25), 600 mg CQ (n = 24), mean ± SD): 406 ± 19 ms
QTc interval, 2 wk follow-up [4, 16]: 403 ± 15 ms
QTc interval, 4–5 h post-dose (day 1) [4, 16]: 421 ± 20 ms
maximal prolongation of the QTc interval from baseline at the individual level ([4]; 600/700 mg dose): 54 ms
maximal prolongation of the QTc interval from baseline at the individual level ([4]; 1,500/1,750 mg dose): 63 ms
mean increase in the QTc interval from baseline, females ([4]; 4 h after 600 mg CQ or 600/700 mg AQ-13): 22 ms
mean QTc interval change from baseline, males ([4]; 4 h after 600 mg CQ or 600/700 mg AQ-13, not significant): 7 ms
mean increase in the QTc interval from baseline ([4]; 4 h after 600 mg CQ or 600 or 700 mg AQ-13): 15 ms and 16 ms
arrhythmias or other cardiac AEs ([4]; all doses): no arrhythmias or other cardiac AEs; also recorded: no cardiac AEs
amount of unchanged drug recovered from 24 hour urine collections [2, 17]: 829 µmol
unchanged drug recovered from 24 hour urine collections, % of total oral dose [2, 17]: 18.0%
CL renal ([2]; human, in vivo, po, 1500 mg): 100 mL/min
hematologic or chemical toxicities on repeat laboratory testing ([5]; 4 d after drug administration): no hematologic or chemical toxicities
organ toxicity ([5]; any dose tested, inpatient exams, 2 and 4 wk follow-up): No hematologic, hepatic, renal, or other organ toxicity was observed; also recorded: no clinical evidence for end-organ toxicity

More lines, main results first:

detection of di-dealkylated metabolite in the blood [1]: not detected in the blood
second (di-dealkylated) metabolite/parent ratio in urine ([2]; days 1-3): 5.2%
detection of di-dealkylated metabolite in urine [2]: identified in urine collections
Structure (SMILES): NCCCNc1ccnc2cc(Cl)ccc12 [AQ-73]

time after drug administration at which metabolite/parent ratio reached 1.0 ([1]; 600 mg AQ-13, AQ-72/AQ-13 ratio): 3 to 6 days
metabolite/parent ratio in blood at the Cmax of the parent drug [1]: 0.37
time to appearance of metabolite in the blood [1]: ≤ 1 h
AUC ([1]; whole blood, oral, 700 mg, after 700 mg AQ-13, median (range), read-out: AUCτ of metabolite): 262 µM·h
AUC ([1]; whole blood, oral, 1750 mg, after 1,750 mg AQ-13 over 3 d, median (range), read-out: AUCτ of metabolite): 440 µM·h
MRT ([1]; whole blood, oral, 1750 mg, after 1,750 mg AQ-13 over 3 d, median (range), read-out: MRT of metabolite (converted)): 17.4 days
half-life ([1]; whole blood, oral, 1750 mg, after 1,750 mg AQ-13 over 3 d, median (range), read-out: t1/2 of metabolite (converted)): 10.5 days
Tmax ([1]; whole blood, oral, after 600 mg AQ-13, median, read-out: Tmax of metabolite): 0.625 days
MRT ([1]; whole blood, oral, after 700 mg AQ-13, median (range), read-out: MRT of metabolite (converted)): 18.6 days
half-life ([1]; whole blood, oral, after 700 mg AQ-13, median (range), read-out: t1/2 of metabolite (converted)): 12.3 days
AUC [1, 7]: 211 µM·h
MRT [1, 8]: 16.6 days
half-life [1, 9]: 11.1 days
Cmax [1, 10]: 590 nM
mono-dealkylated metabolite/parent ratio in urine ([2]; days 1-3): 23.6%
Structure (SMILES): CCNCCCNc1ccnc2cc(Cl)ccc12 [AQ-72]
activity of major metabolite against CQ-resistant parasites [6]: not active against CQ-resistant parasites
